Assay results as given in US20060165631A1, “Use of oligoglucosamines in cosmetic or dermatological preparations” (priority 2003, published 2006).

Tested on: human keratinocytes
Assay: Protection of cells against UV-B rays (cell DNA, LDH and PGE2 release)
Format: cell-based
Conditions: 0.03 % w/v, UVB 50 mJ/cm^2, control with UVB = 100%, without UVB = 0%
Description: The influence of UVB rays on keratinocytes was determined in vitro through the release of cytoplasmatic enzymes, such as LDH (lactate dehydrogenase) for example, which runs parallel to the cell damage and the formation of PGE2. To carry out the test, a keratinocyte culture was mixed with foetal calf serum and inoculated with the test substances after storage at 37° C. in an atmosphere containing 5% CO2. After incubation for 36 h at 37° C. and a CO2 level of 5% by vol., the nutrient medium was replaced by an electrolyte solution and the fibroblasts were damaged with a particular dose of UVB (50 mJ/cm^2; lamp: Duke GL40E). The quantity of keratinocytes was determined after trypsination via a cell counter while the LDH concentration was enzymatically determined.

Compound `CC(=O)Oc1ccccc1C(=O)O` [acetylsalicylic acid] has an LDH released of 0% and a PGE2 released of 0%.
